Reference: a melting point compilation (Tetko et al.; mined from patent text by program, amines drawn as free bases though some values may be those of a salt)

Row | SMILES | melting point
1 | O=C1C(=O)c2ccc(-c3cccnc3)cc2C2=C1SCC1(CCNCC1)O2 | 213 to 215 °C
2 | CC(C)Oc1cc(CCCOc2cc(CCC(=O)O)n(Cc3ccccc3)n2)n(Cc2ccc(Cl)cc2Cl)n1 | 123 to 126 °C
3 | Nc1cc(C(Cl)(Cl)Cl)ccn1 | 114 °C
4 | CC(C)(C)c1cc(CC2SC(=S)NC2=O)cc(C(C)(C)C)c1O (configuration not stated) | 178 to 179 °C
5 | COc1cccc(C=CCC(=O)O)c1OC | 84 to 86 °C
6 | CCS(=O)c1cc2c(cc1OC)CCn1c3c(c(Br)c1-2)CCCCN(C(C)(C)C)C3=O (configuration not stated) | 140 to 145 °C
7 | O=[N+]([O-])c1ccc(S(=O)(=O)Nc2ccccc2)cc1 | 154 to 156 °C
8 | CCCN1OCC(=Cc2cc(C(C)(C)C)c(O)c(C(C)(C)C)c2)C1=O | 194 to 196 °C
9 | COc1ccccc1N1CCN(CC(O)COc2cc(C)c(O)c(C)c2C)CC1 (configuration not stated) | 163 to 165 °C
10 | CN1CCOC(CC23CC(c4ccccc42)c2ccccc23)C1 (configuration not stated) | 136 to 137 °C
11 | CCOC(=O)C1=C(C)Nc2ccnc(OC(C)C)c2C1c1ccccn1 (configuration not stated) | 191 to 193 °C
12 | CCCCc1nc(=O)c2cc(-c3nnn[nH]3)ccc2[nH]1 | 225 °C
13 | O=C(O)CCCOn1nnc2ccc(Cn3ccnc3)cc21 | 170 °C
14 | CSc1sc(C(N)=O)c2c1-c1[nH]ncc1CC2 | 210 to 211 °C
15 | CCOC(=O)Cc1csc(NC(=O)C(F)(F)F)n1 | 119 to 121 °C
16 | Cc1nc(N2CCCC2C)c2nc(-c3ccccc3)cc-2[nH]1 (configuration not stated) | 219 to 221 °C
17 | CCCCCCCCCCc1ccnc(C(=O)NCCCCC(=O)O)c1 | 54 to 56 °C
18 | O=C(O)C1CCN1C(c1ccccc1)c1ccccc1 (configuration not stated) | 132 to 137 °C
19 | O=C(NC(=CC(=O)[C@H](Cc1ccccc1)N(Cc1ccccc1)Cc1ccccc1)Cc1ccccc1)c1ccccc1 | 131 to 133 °C
20 | CCOC(=O)C1(N2C(=O)c3cccc(F)c3C2=O)CC1 | 164 °C
21 | CC1=NC(SCc2ccccc2)=CC2=CN(C)NN21 | 108 to 111 °C
22 | Cc1cc(C(=CNc2ccc(O)cc2)C(=O)c2ccccc2)on1 | 73 to 74 °C
23 | CCOC(=O)C(=CNc1cnsn1)C(=O)c1cc(F)c(F)c(F)c1F | 81 to 83 °C

Row | SMILES | melting point
24 | CC(C)[Si](OCCOc1cc(CO)ccc1Br)(C(C)C)C(C)C | 62.2 °C
25 | Cc1nnc(-c2ncn3c2[C@@H]2CCCN2C(=O)c2c(Cl)cccc2-3)o1 | 253 to 254 °C
26 | CCCOc1ccc(N2CCCn3c2nc2c(Cl)ccc(C(OC(F)F)C(F)(F)F)c23)c(C)n1 (configuration not stated) | 156 to 158 °C
27 | CCCCCCCCCCCCCCCCCCOC(=O)c1ccccc1I | 35 °C
28 | COc1ccc(CCNC(=O)c2ccc(S(=O)(=O)NC(=O)c3ccc(C(=O)NCCO)nc3)cc2)cc1OC | 201 to 203 °C
29 | NC(=C[N+](=O)[O-])NC1CCCCCC1 | 118 to 125 °C
30 | c1ccc(CN(c2ccccc2)c2ccc(N(Cc3ccccc3)c3ccccc3)cc2)cc1 | 149 to 151 °C
31 | Oc1cc(Br)cc(O)c1F | 83 to 86 °C
32 | CC(C)(C)OC(=O)NCC(Cl)c1ccsc1 (configuration not stated) | 63 to 65 °C
33 | C(=Cc1ccc(-c2ccc(C=Cc3ccccc3)cc2)cc1)c1ccccc1 | 323 to 325 °C
34 | FN(F)C12CC3CC(CC(C3)C1)C2 | 113 to 115 °C
35 | O=C1C(=O)c2ccccc2C2=C1SCC1(CCCNC1)O2 (configuration not stated) | 128 to 134 °C
36 | OC(CCCN1CC=C(c2noc(C3CC3)n2)CC1)c1ccc(F)cc1 (configuration not stated) | 89 to 92 °C
37 | O=C(Nc1cnccn1)N1CCN(c2nc(-c3cccc(F)c3)cs2)CC1 | 158 to 159 °C
38 | CCOc1cc2c(O)c(C(=O)O)cnc2nc1C | 259 to 261 °C
39 | CCOc1c(NCc2c(C)cccc2C)c(=O)c1=O | 281 to 283 °C
40 | CC(C)(C)OC(=O)c1cc(O[C@H]2CC[C@H](NC(=O)Nc3ccc(Cl)c(C(F)(F)F)c3)CC2)ccn1 | 101 to 117 °C
41 | COC(=O)C(/C(=C\c1ccccc1)C(N)=O)=C(\C)c1cc(OC)c(OC)c(OC)c1 | 118 to 120 °C
42 | C=C[C@H]1CN2CC[C@H]1C[C@H]2[C@H](OC(=O)c1ccc(OCCCCCC)cc1)c1ccnc2ccccc12 | 70 °C
43 | CCOCCc1c(-c2ccccc2)nc(Br)n2ncnc12 | 159 to 160 °C
44 | Cc1cn(-c2cccc(C3=Nc4ccc(-c5ccc(F)cc5)cc4NC(=O)C3)c2)cn1 | 215 °C
45 | O=C/C=C/c1c(Cl)cc(Cl)cc1OCc1ccccc1 | 109 to 112 °C
46 | COc1ccc(CCN(C)CCc2ccc(NC(=O)c3cccc4c(=O)c5cccc(OC)c5[nH]c34)cc2)cc1OC | 179 °C

Row | SMILES | melting point
47 | CCCCCCCCCCCCCCOCC(CCC(=O)N(C)C)(CCC(=O)N(C)C)COCCCCCCCCCCCCCC | 47 to 49 °C
48 | COC(=O)c1nc(-c2cc(F)c([Si](C)(C)C)cc2F)c(F)c(N)c1OC | 137 to 139 °C
49 | CC(=O)Nc1c(C(=O)c2ccccc2)[nH]c2ccc(N)cc12 | 254 to 256 °C
50 | CC(F)(F)c1ccc2c(c1)C=C(C(=O)O)C(C(F)(F)F)O2 (configuration not stated) | 156 to 158 °C
51 | CCOCc1nc2c(N)nc3cc(-c4cccnc4)ccc3c2n1Cc1ccc(CNC(=O)OC(C)(C)C)cc1 | 196 to 197 °C
52 | CCCCc1nc2sccc2[nH]1 | 160 °C
53 | CC(C)c1nc2cc(NC(=O)c3c(C(=O)N4CCCC4)cnn3C)ccn2n1 | 141 to 143 °C
54 | O=C(O)C1CCc2c(c3ccccc3n2C(=O)c2cccc(Br)c2)C1 (configuration not stated) | 185 to 186 °C
55 | O=C(NCCO)c1ccc2c3c(cc([N+](=O)[O-])c2c1)NCC3CCl (configuration not stated) | 150 to 151 °C
56 | CC(C)c1cc(C(C)C)c(CC(=O)NS(=O)(=O)Oc2c(C(C)C)cc(NS(=O)(=O)c3cccc4c(N(C)C)cccc34)cc2C(C)C)c(C(C)C)c1 | 103 to 105 °C
57 | O=C(NC(CO)CO)OCc1ccccc1 | 104 to 106 °C
58 | CC(=O)C1Cc2ccc(O)c(O)c2C1=O (configuration not stated) | 159 to 160 °C
59 | N#CC(C#N)=CN(N=C(C#N)C#N)c1ccc(F)cc1 | 138 to 139 °C
60 | COCOCc1nc(-c2ccccc2)oc1COc1ccc(OCc2nc(-c3ccccc3)oc2C)cc1 | 74 to 75 °C
61 | Nc1coc2ccc(Cl)cc2c1=O | 184 to 186 °C
62 | CCCCNC(=O)c1nc2cnn(CC)c2nc1OCC | 115 to 117 °C
63 | CN1CCC(O)(c2cccc3[nH]ccc23)CC1 | 205 to 206 °C
64 | O=Cc1ccc2c(c1)Sc1ccccc1C=C2 | 114 to 116 °C
65 | C=C(C)CN1CCN(CC(=O)N2c3ccccc3C(=O)Nc3cccnc32)CC1 | 205 to 207 °C
66 | CCCC(c1ccccc1)c1c(O)c2c(oc1=O)CCCCCC2 (configuration not stated) | 173 to 175 °C
67 | CSc1csc2ccc(Br)cc12 | 56 to 57 °C

Results, then the compound that gave them:

Row | melting point | SMILES
68 | 153 to 155 °C | CNC(=O)c1cc(-c2ccc(OC)cc2)nn(CC#N)c1=O
69 | 76.3 to 76.8 °C | CCCCCCCc1ccc(-c2ncc(C#N)c(Cl)n2)cc1
70 | 190 °C | CCN(CC)c1ccc(-c2cc(-c3ccc(C(=O)O)cc3)ccc2O)cc1C(C)(C)C
71 | 70 to 72 °C | COc1ccc(C=C(C(C)=O)C(C)=O)cc1
72 | 100 °C | CCOC(=O)C(C)(C)Oc1ccc(-c2ccc(CCNC(=O)c3ccccc3)cc2)cc1
73 | 71 to 72 °C | CCCNC(=O)Oc1ccc(C(O)(CC)c2ccc(Cl)cc2)cc1 (configuration not stated)
74 | 270 °C | Cn1nc(-c2cnc(N)nc2-c2cccs2)ccc1=O
75 | 122 °C | COC(=O)C(Cc1ccc(OCCn2c(=O)sc3cc(Cc4ccc(-c5ccccc5)cc4)ccc32)cc1)C(=O)OC
76 | 206 to 207 °C | CC(=O)N1CCCC1c1ccnc(-c2nc(=O)c3ccccc3s2)c1 (configuration not stated)
77 | 71 to 74 °C | CCOC(=O)c1ncc2ccccc2n1
78 | 210 to 212 °C | CCOC(=O)c1cn(NCC=O)c2nc(C)ccc2c1=O
79 | 138 °C | CC(=O)N1CC(=O)c2ccccc21
80 | 228 to 230 °C | C#CCOc1ccc(C(=O)C=Cc2c[nH]c3ccccc23)c(O)c1
81 | 241 to 244 °C | O=C(O)CN1C(=O)C(=Cc2cccc3ccccc23)SC1=S
82 | 126 °C | COc1ccc(CNc2nc(CCC(=O)O)nc3sc(Cl)cc23)cc1Cl
83 | 129 to 131 °C | O=C(CC(c1ccc(OC(F)F)c(OCC2CC2)c1)N1C(=O)c2ccccc2C1=O)NO (configuration not stated)
84 | 72 to 73 °C | COc1ccc2cc([C@H](C)C(=O)OCCO)ccc2c1
85 | 149 to 150 °C | OCc1nn(-c2ccc(Cl)cc2)c2c1CCC2

Row | melting point | SMILES
86 | 228 to 230 °C | COc1ccc(C(=O)Nc2nc3ccc(N)cc3c(NCc3ccccc3)c2C#N)cc1
87 | 82 to 83 °C | COC(=O)c1ccccc1C=Nc1cc(C)ccc1O
88 | 122 to 123 °C | CCCCOC(=O)NS(=O)(=O)CCc1c(C)nn(C)c1-n1ccc2cc(C(F)(F)F)cnc21
89 | 156 to 157 °C | Cc1cc(SCc2oc(-c3ccc(C(F)(F)F)cc3)nc2C)ccc1OCC(=O)O
90 | 74.6 °C | CCOC(=O)c1ccc(-c2ccc(C(C)O)cc2)cc1 (single isomer, unassigned; (+))
91 | > 300 °C | Nc1nc2c(nc(Br)n2Cc2ccc(Cl)cc2)c(=O)[nH]1
92 | 150 to 152 °C | CC(C)(C)c1ccc(OCC(O)CN2CCC3(CC2)CSC2=C(O3)c3ccccc3C(=O)C2=O)cc1 (configuration not stated)
93 | 138 to 140 °C | CC(C)Oc1ccc(/C=C/C(=O)O)c(Oc2ncc(C(F)(F)F)cc2Cl)c1
94 | 63 to 65 °C | COc1ccc(Sc2ccccc2C(C)C)cc1
95 | 140 to 142 °C | CC(C)(C)OC(=O)Nc1ccc(C#Cc2ccccc2F)cc1[N+](=O)[O-]
96 | 160 °C | c1ccc(-c2ccnc(-c3ccc4cc[nH]c4c3)n2)cc1
97 | 222 to 224 °C | CCCc1c(O)ccc2c(=O)cc(C(=O)OC)oc12
98 | 213 to 215 °C | Cc1ccc(C)c(NS(=O)(=O)c2ccc(N3CCNC3=O)cc2)c1
99 | 166 °C | C#Cc1ccc(Nc2c(C(=O)c3nccn3C)ccc(F)c2F)c(F)c1
100 | 129 to 130 °C | CCOC(=O)c1cnn2c(-c3ccccc3)ccnc12
101 | 130 to 132 °C | CO[C@@H]1CN(c2ccc3c(=O)c(C=O)cn(-c4nccs4)c3n2)C[C@H]1NCC(=O)OC(C)(C)C (relative stereo)
102 | 198 to 200 °C | NC(=NC(=O)Cn1c(Cl)ccc1Cl)NC(=O)c1ccc(Cl)cc1
